Measurements as given in patent publication US6680342B2, “Methods and compositions for inhibiting the proliferation of prostate cancer cells” (priority 2001, dated 2004).

Experiments:
PSA [1] = experiment: PSA protein in spent media, immunometric assay, LNCaP cells; assay type: cell-based, human; details: 5 days, with or without Mib, normalized by MTS
Protocol: (§1) LNCaP cells were seeded at 2×10^4 cells per well in 24 well plates. […] After a 5 day incubation, the spent media were harvested, and the levels of PSA and hK2 quantified by an immunometric assay as described previously (Hsieh et al., 1997, Cancer Res., 57:2651-6). MTS assays were performed (Promega, Madison, Wis.) as per the manufacturer's instructions. The protein levels of PSA and hK2 were normalized by cell density measurements with the MTS assay.

Sp1 = experiment: Western blot of Sp1, LNCaP cells; assay type: cell-based, human
Protocol: (§3) Both cell lines were propagated in 24-well, 60 or 100 mm culture dishes at the desired density in RPMI 1640 (Mediatech, Herndon, Va.) supplemented with 5% fetal calf serum (FCS) (Biofluids, Rockville, Md.) at 37° C. and 5% CO2 until reaching 50-70% confluence.
(§4) LNCaP or LAPC-4 cells were plated in 10 cm dishes at 9×10^5 cells per dish in RPMI 1640 and 5% FCS. […] Cells were harvested at designated times, and the whole cell lysate was prepared according to manufacturer's instructions (Santa Cruz, Santa Cruz, Calif.). […] Protein levels were measured with a BioRad DC protein assay (BioRad, Hercules, Calif.). Protein samples (20 μg) were loaded into precast 4-12% NuPage gels (Novex, San Diego, Calif.), run with MOPS buffer, and transferred onto a nitrocellulose membrane (BioRad) according to the manufacturer's instructions. A Ponceau S staining was performed for total protein staining and visualized with a digital camera. The membranes were blocked overnight at 4° C. in TBST (20 mM Tris-HCl (pH 8.0), 137 mM NaCl, and 0.1% Tween 20) and 5% dry milk. The membranes were washed 3 times for ten min each with TBST. Primary antibody for the androgen receptor (1:2,000 dilution) (Pharmingen, San Diego, Calif.), Sp1 (1:2,000 dilution) (Santa Cruz) or heat shock protein70 (Hsp70) (1:1,000 diultion) (StressGene Biotechnologies, Victoria, B.C.) was incubated at room temperature for 1 hr. […]

hK2 [2] = experiment: hK2 protein in spent media, immunometric assay, LNCaP cells; assay type: cell-based, human; details: 5 days, with or without Mib, normalized by MTS
Protocol: as §1

PSA [3] = experiment: Northern blot of PSA mRNA, LNCaP cells; assay type: cell-based, human; details: in the presence of androgen, 24 hrs
Protocol: (§2) The films were autoradiographed at −70° C. overnight.

hK2 [4] = experiment: hK2 protein in spent media, immunometric assay, LAPC-4 cells; assay type: cell-based, human; details: LAPC-4, 5 days, with or without Mib, normalized
NKX3.1 = experiment: Northern blot of NKX3.1 mRNA, LNCaP cells; assay type: cell-based, human; details: in the presence of androgen, 24 hrs
Protocol: as §2

[5] = system: heat shock protein70 (Hsp70); experiment: Western blot of heat shock protein70, LNCaP cells; assay type: cell-based, human
Protocol: as §3, §4

PSA [6] = experiment: PSA protein in spent media, immunometric assay, LAPC-4 cells; assay type: cell-based, human; details: LAPC-4, 5 days, with or without Mib, normalized
male and female rats = details: approximately 40 to 1900 mg/kg/day; cited from earlier work
ODC = experiment: Northern blot of ODC mRNA, LNCaP cells; assay type: cell-based, human; details: in the presence of androgen, 24 hrs
Protocol: as §2

With `O=c1c(O)c(-c2ccc(O)c(O)c2)oc2cc(O)cc(O)c12` [quercetin, Quercetin] the PSA protein levels (PSA [1]) was “inhibits both PSA and hK2 protein levels in a dose-dependent manner”, the Sp1 protein level (Sp1) was “not affected” and the hK2 protein levels (hK2 [2]) was “inhibits both PSA and hK2 protein levels in a dose-dependent manner”. For the same compound, the “PSA mRNA levels” value (PSA [3]) was “greatly reduced”, the hK2 protein levels (hK2 [4]) was “inhibits both PSA and hK2 protein levels in a dose-dependent manner” and the “NKX3.1 mRNA levels” value (NKX3.1) was “greatly reduced”. For the same compound, the Hsp70 protein level [5] was “not affected”, the PSA protein levels (PSA [6]) was “inhibits both PSA and hK2 protein levels in a dose-dependent manner” and the effects on survival (male and female rats) was “no treatment related effects on survival”. The “ODC mRNA levels” value (ODC) was “greatly reduced”.
